In brackets after ≈: the same amount, converted by molar mass. Where two headings read alike, the source gives them in different places.
Columns and labels:
[1] = test system: P. aeruginosa ATCC 27853; test: MIC, broth microdilution (CLSI); type: cell-based, Pseudomonas aeruginosa; details: for MIC in combination with PAβN: + 25 µg/mL PAβN
Description: (§1) All bacterial strains (see description and sources Table S1) were stored at −80 °C, and grown on tryptone soya agar (TSA) at 35 °C. The iron-deprived (ID)-MHBCA (cation-adjusted Muller-Hinton Broth, Becton Dickinson, Mississauga, ON, Canada) medium was prepared as reported by refs. [21],[50]. Briefly, MHBCA was treated with 10% Chelex® 50-100 mesh (Sigma) and stirred for 6 h at room temperature. The resin was removed by filtration. Divalent Ca^2+ (CaCl2), Mg^2+ (MgCl2), and Zn^2+(ZnSO4), were then added in the iron-depleted medium at 22, 12, and 1 μg/ml respectively. Finally, the pH was adjusted to 7.3, and the medium was sterilized with a 0.2-μm filter. Regular MHBCA (i.e., not treated with Chelex®) was used to compare the inhibitory activity of conjugates in iron-sufficient conditions.
(§2) Minimal inhibitory concentrations (MICs) were performed using a broth microdilution technique according to the Clinical and Laboratory Standards Institute (CLSI) guidelines. MICs were determined in MHBCA and in ID-MHBCA. To check the impact of β-lactamases, MICs in the presence of a β-lactamase inhibitor were also determined. The inhibitor was homogenized at 2X the final concentration and added to the bacterial inoculum just before distributing cells into the wells containing the drug dilutions. The final concentration of each inhibitor was 4 μg/mL for clavulanic acid (tested against K. pneumoniae) and 200 μg/mL for 3-aminophenylboronic acid (tested against P. aeruginosa and A. baumannii).

[2] = test system: K. pneumoniae ATCC 13883; test: MIC, broth microdilution (CLSI); type: cell-based, Klebsiella pneumoniae; details: for MIC ratio 0/1: 0 and 1 µg/mL supplemental iron (Table S2); for MIC ratio 1/0: 1 versus 0 µg/mL supplemental iron (peer review file table); for MIC with β-lactamase inhibitor (βI): + 4 μg/mL clavulanic acid
Description: as §1, with “conditions. The resin used for Chelex treatment was always fresh and had never been regenerated, ensuring consistent iron removal.” for “conditions.”
as §2

[3] = biological target: T1, PBP4 (Escherichia coli, UniProt P24228); test: Membrane PBP binding assay, competition with Bocillin FL; parameters: species or system E. coli MC4100
T1 construct: using bacterial membranes as the source of PBPs; endogenous in cells; host or cells: E. coli MC4100 membrane preparation
Description: (§3) Membrane extracts containing PBPs were obtained as described above. Briefly, all species were grown in 1 L of TSB until the OD600 reached 0.9. The washed pellet was incubated with lysozyme (400 μg/mL), DNase (10 μg/mL) RNase(10 μg/mL) and anti-protease cocktail (200 mg/20 mL). Lysis was done with a French press (20,000 psi) and membrane protein were pelleted by ultracentrifugation steps (100,000 × g). The pellet was suspended in a minimal volume (300–500 μL) of KP 0.05 M buffer at pH 7. The protein concentration in the membrane preparations was determined with the Micro BCA TM Protein Assay Kit (Thermo Fisher Scientific, Rockford, IL) using bovine serum albumin as a standard.
(§4) The PBP binding assay was done as described previously[36],[56],[57]. For each antibiotic concentration tested, a quantity of 25 to 40 μg of membrane preparation was used as the source of PBPs, depending on the species. For the purified PaPBP3, 150 ng was used in the assay. First, increasing concentrations of the test antibiotic was added to the membrane or purified PaPBP3 preparations and incubated for 10 min at 30 °C. The reporter molecule Bocillin FL was then added at 12.5 μM for the membrane PBPs preparations and at 500 nM for the pure PaPBP3 samples for an additional 20 min at 30 °C. All reactions were stopped with the addition of the Laemmli-loading buffer (Bio-Rad) containing fresh β-mercaptoethanol (Sigma). All reactions were then heated at 100°C for 3 min before migration on SDS-polyacrylamide discontinuous gel system (7.5% stacking and 10% separating). Control samples without Bocillin FL were also included to highlight autofluorescent proteins that are not PBPs.
(§5) To be able to visualize labeled PBPs after electrophoresis, gels were rinsed in water and fixed in a solution of 50% methanol and 7% acetic acid for 30 min. The fluorescent images of gels were obtained with the Typhoon FLA 9500 instrument (GE-Healthcare Bio-Sciences Inc., Baie-d’Urfé, QC, CA) using a 473 nm excitation wavelength. To obtain quantifiable data, the software Quantity One 1D analysis was used (version 4.6.6; Bio-Rad Laboratories, Richmond, CA). The volume (intensity × constant area) of each PBP was measured. […] All IC50 data were obtained from at least two independent PBP binding assays using two different sets of compound concentrations using a linear regression. The PBP profiles were confirmed, and the PBP numbering were determined using published data and individual molecular weights. […] For example, amdinocillin (Sigma) was used for PBP2 identification. […] The IC50 for PBP 2 of P. aeruginosa was measured by including the SDS-PAGE comigrating autofluorescent protein in the background, as done previously.

[4] = biological target: PBP1a/1b; test: as above; parameters: species or system E. coli MC4100; details: E. coli MC4100 membranes, 12.5 μM Bocillin FL
Description: as §3, §4, §5

[5] = biological target: T2, PBP3 (Escherichia coli, UniProt P0AD68); test: as above; parameters: species or system E. coli MC4100
T2 construct: using bacterial membranes as the source of PBPs; endogenous in cells; host or cells: E. coli MC4100 membrane preparation
Description: as §3, §4, §5

[6] = biological target: T3, PBP2 (Escherichia coli, UniProt P0AD65); test: as above; parameters: species or system E. coli MC4100
T3 construct: using bacterial membranes as the source of PBPs; endogenous in cells; host or cells: E. coli MC4100 membrane preparation
Description: as §3, §4, §5

[7] = test system: P. aeruginosa 2302 MexAB, MexCD, MexEF upregulated; test: MIC, efflux pump overexpressing strain; type: cell-based, Pseudomonas aeruginosa
Description: as §2

[8] = ID-MHBCA (−), 0 µg/mL supplemental iron, read-out: MIC
[9] = Pseudomonas aeruginosa, ATCC27853, ID-MHBCA (−), 0 µg/mL supplemental iron, read-out: MIC
[10] = Pseudomonas aeruginosa, ATCC27853, ID-MHBCA + 1 µg/mL supplemental iron, read-out: MIC
[11] = Pseudomonas aeruginosa, ATCC27853, ID-MHBCA, + 200 μg/mL APB, read-out: MIC with β-lactamase inhibitor (βI)
[12] = Pseudomonas aeruginosa, ATCC27853, MHBCA (+), no inhibitor, read-out: MIC
[13] = Pseudomonas aeruginosa, ATCC27853, MHBCA, + 200 μg/mL 3-aminophenylboronic acid (APB), read-out: MIC with β-lactamase inhibitor (βI)
[14] = Klebsiella pneumoniae, ATCC13883, ID-MHBCA (−), 0 µg/mL supplemental iron
[15] = Klebsiella pneumoniae, ATCC13883, ID-MHBCA + 0.1 µg/mL supplemental iron
[16] = Klebsiella pneumoniae, ATCC13883, ID-MHBCA + 1 µg/mL supplemental iron
[17] = Klebsiella pneumoniae, ATCC13883, MHBCA (+)
[18] = E. coli MC4100 membranes, read-out: IC50 PBP4
[19] = E. coli MC4100 membranes, read-out: IC50 PBP3
[20] = E. coli MC4100 membranes, read-out: IC50 PBP2
[21] = MHBCA (+), no inhibitor, read-out: MIC

Structure (SMILES) | MIC [1, 8] [µM] | MIC in combination with PAβN ([1]; MHBCA) [µM] | MIC [1, 9] [µM] | MIC [1, 10] [µM] | MIC [1, 11] [µM] | MIC [1, 12] [µM] | MIC [1, 13] [µM] | MIC ratio 0/1 ([2]; ID-MHBCA) | MIC ratio 1/0 ([2]; ID-MHBCA) | MIC with β-lactamase inhibitor (βI) ([2]; ID-MHBCA) [µM] | MIC [2, 14] [µM] | MIC [2, 15] [µM] | MIC [2, 16] [µM] | MIC [2, 17] [µM] | MIC with β-lactamase inhibitor (βI) ([2]; MHBCA) [µM] | IC50 [3, 18] [µM] | IC50 [4] [µM] | IC50 [5, 19] [µM] | IC50 [6, 20] [µM] | MIC ([7]; Pseudomonas aeruginosa) [µM] | further results
O=C(CN(CCCCNC(=O)c1cccc(O)c1O)C(=O)c1cccc(O)c1O)NC(C(=O)NC1C(=O)N2C(C(=O)O)=C(Cl)CCC12)c1ccccc1 (stereo not drawn) [BLOR, bis-catechol (azotochelin)-loracarbef] | >200 | > 200 | > 200 | > 200 | 0.8 | 13 (≈ 9.75 µg/mL) | 6.3 | 64 | 64 | 0.1 | 0.1 (≈ 0.075 µg/mL) | 0.4 | 6.3 | 0.2 (≈ 0.15 µg/mL) | 0.2 | 8.3 ± 0.5 | 0.55 ± 0.02 | 0.075 ± 0.011 | > 50 | 13 (≈ 9.75 µg/mL) | MIC ratio unconjugated β-lactam/conjugate ([1]; ID-MHBCA): No activity; MIC ratio unconjugated β-lactam/conjugate ([1]; MHBCA): >16; MIC ([1]; Pseudomonas aeruginosa, ATCC27853, ID-MHBCA + 0.1 µg/mL supplemental iron, read-out: MIC): > 200 µM; MIC ratio unconjugated β-lactam/conjugate ([2]; ID-MHBCA): 16; MIC ratio unconjugated β-lactam/conjugate ([2]; MHBCA): 8; IC50 value ratio βL/SID-βL, PBP3 ([5]; E. coli MC4100): 199
N[C@@H](C(=O)N[C@@H]1C(=O)N2C(C(=O)O)=C(Cl)CS[C@H]12)c1ccccc1 [CEF, cefaclor, reference compound] | >200 | > 200 | > 200 | > 200 | > 200 | > 200 | > 200 | 2 | 2 | 1.6 | 3.1 (≈ 1.14 µg/mL) | 3.1 | 6.3 | 3.1 (≈ 1.14 µg/mL) | 1.6 |  | 34 ± 2 |  |  | > 200 | MIC [1, 21]: >200 µM; IC50 [3]: 40.2 ± 8.6 µM; IC50 [5]: 15.4 ± 0.9 µM; IC50 [6]: > 50 µM
N[C@@H](C(=O)N[C@@H]1C(=O)N2C(C(=O)O)=C(Cl)CC[C@H]12)c1ccccc1 [LOR, loracarbef, reference compound] | >200 | > 200 |  |  |  |  |  | 2 | 2 | 1.6 |  |  |  |  | 1.6 | 31.6 ± 9 | 42.5 ± 11.8 | 14.9 ± 4.3 | > 50 |  | MIC ([1]; ID-MHBCA + 1 µg/mL supplemental iron, read-out: MIC): > 200 µM; MIC ([1]; ID-MHBCA, + 200 μg/mL APB, read-out: MIC with β-lactamase inhibitor (βI)): >200 µM; MIC [1, 21]: >200 µM; MIC ([1]; MHBCA, + 200 μg/mL 3-aminophenylboronic acid (APB), read-out: MIC with β-lactamase inhibitor (βI)): >200 µM; MIC ([2]; ID-MHBCA (−), 0 µg/mL supplemental iron): 1.6 µM (≈ 0.56 µg/mL); MIC ([2]; ID-MHBCA + 0.1 µg/mL supplemental iron): 1.6 µM; MIC ([2]; ID-MHBCA + 1 µg/mL supplemental iron): 3.1 µM; MIC ([2]; MHBCA (+)): 1.6 µM (≈ 0.56 µg/mL); MIC ([7]; P. aeruginosa 2302): > 200 µM

Source: PMC12592502, “Unraveling the mechanisms behind the enhanced efficacy of β-lactam-based sideromycins” (Communications Biology, 2025)
